Laboratory results from patent US20240216376A1, “COMBINATION THERAPIES FOR THE TREATMENT OF CANCER” (Duke University, priority 2021, published 2024).

What was measured:
AKT [1] = test: Western immunoblot of AKT phosphorylation in AML cell lines; assay type: cell-based
Description: (§1) Protein lysates were prepared with 1×CST Lysis Buffer (CST #9803) supplemented with 1× cOmplete protease inhibitor cocktail (Roche #04693124001) and 1× PhosSTOP phosphatase inhibitor (Roche #04906837001). Crude lysates were rotated for 15 minutes with lysis buffer, cleared by centrifugation at 13,000 rpm for 10 minutes at 4° C. and normalized by total protein content using standard Bradford analysis. Membranes were probed with primary antibodies β-actin (13E5) (CST #4970 diluted 1:5000 in 5% BSA), p-AKT T308 (244F9) (CST #4056 diluted 1:1000 in 5% BSA), p-AKT S473 (D9E) (CST #4060 diluted 1:1000 in 5% BSA), T-AKT (C67E7) (CST #4691 diluted 1:3000 in 5% BSA), p-GSK3B S9 (D85E12) (CST #5558 diluted 1:1000 in 5% BSA), p-BAD S136 (D25H8) (CST #4366 diluted 1:1000 in 5% BSA), CRM1 (C-1) (sc #74454 diluted 1:100 in 5% BSA), cleaved-PARP (D64E10) (CST #5625 diluted 1:1000 in 5% BSA), cleaved-Caspase3 D175 (CST #9661 diluted 1:500 in 5% BSA), p110-g (D55D5) (CST #5405 diluted 1:1000 in 5% BSA), p110α (C73F8) (CST #4249 diluted 1:1000 in 5% BSA), p110β (C33D4) (CST #3011 diluted 1:1000 in 5% BSA), p1108 (D1Q7R) (CST #34050 diluted 1:1000 in 5% BSA) or p101 (D32A5) (CST #5569 diluted 1:1000 in 5% BSA) overnight (16 hours). Following incubation with HRP-conjugated secondary antibody, blots were developed with SuperSignal West Pico PLUS Chemiluminescent Substrate (ThermoFisher) or ECL Western Blotting Substrate (ThermoFisher).
To validate selinexor's ability to activate PI3K/AKT signaling, each of five AML cell lines was treated with selinexor for 24 hours before performing western blot analysis. […] Additional AKT-dependent phosphorylation marks on PRAS40, FOXO3a, and TSC2 were also assessed in OCI-AML2 cells and found to be increased. This phosphorylation pattern was indicative of activated AKT signaling. To characterize the kinetics of selinexor-induced AKT activation, AML cells were treated with selinexor and collected samples at interval time points up to 48 hours. Across multiple cell lines, activation of AKT signaling was observed starting at 8-24 hours (FIG. 2B). […] The delays between treatment and AKT activation, observed both in vivo and in vitro, were not inconsistent with the presumption that selinexor primarily acts through transcriptional mechanisms. Finally, to assess the exclusivity of these findings for selinexor, cells were treated with a panel of eight additional anti-leukemic drugs for 24 hours.

RAS = test: Ras-GTP immunoprecipitation (RAF1-RBD pulldown); assay type: cell-based
Source text: Active GTP bound Ras was pulled down and detected using the Active Ras Pull-Down and Detection Kit (Thermo Scientific, #16117) according to manufacturer's instruction. At least 10×10^6 cells were used in pull-down and lysates were normalized to ensure equal protein input across DMSO and selinexor-treated samples within each cell line.

AML cell lines = test: Short-term drug sensitivity assay (GI50), selinexor plus background drug; assay type: cell-based; settings: fixed-concentration background drug; for sensitization to selinexor (relative selinexor GI50), PI3K isoform-specific inhibitor background: panel of AML cell lines; for sensitization to selinexor (relative selinexor GI50), AKT or MEK/ERK inhibitor background: panel of eight AML cell lines, 72 hours
Description: Short-term cell viability assays were conducted. Briefly, AML cells were seeded at a density of 7,500 cells/well, treated with vehicle (DMSO) or a 10-fold serial dilution of selinexor (individually or combination with fixed-concentration background drug) and assessed for viability after 72-hours using Cell Titer Glo (Promega). The relative cell viability was determined by normalizing the raw luminescence values for each treatment condition to either the DMSO-treated well (selinexor individually) or the background drug only well (selinexor combinations). GI50 values approximate the concentration of selinexor required to inhibit growth of cells by 50%. Values were interpolated from dose-response curves plotted using GraphPad/Prism 8 software.

OCI-AML2 cells [2] = test: Pooled CRISPR selinexor sensitizer screen, selinexor dose (approx. GI50); assay type: cell-based; settings: Homo sapiens, 336 h, two-week screen period, approximate, read-out: GI50 concentration
Description: Virus production, titering and transduction was performed as previously described. In short, viral titer (Infectious Units (IFU)/mL) was found by transducing OCI-AML2 cells with a 1:3 dilution series of library virus, selecting cells with puromycin for 2 days and determining multiplicity of infection (MOI) from % of cells infected. Viral titer is equal to (#cells seeded*MOI*Virus dilution factor)/(Volume of virus added to each well). […] For the selinexor sensitizer screen, selinexor was dosed at 100 nM, a concentration that yielded sufficient selective pressure without excessive cell death (approximately the GI50 concentration) over the two-week screen period. […] Genomic DNA was extracted using the DNeasy Blood & Tissue Kit (Qiagen) from 25×10^6 cell samples taken prior to dividing cells into treatment conditions (time zero) and after completion of the two-week screen. Amplification of the sgRNA barcodes and indexing of each sample was performed via 2-step PCR as previously described.

AKT [3] = test: AKT activation in vivo, syngeneic MLL-AF9-driven model of AML; settings: MLL-AF9 cells from treated mice
OCI-AML2 cells [4] = test: Reverse phase protein array (RPPA) analysis; assay type: cell-based
Description: OCI-AML2 cells were treated with DMSO or selinexor for 3, 24 and 48-hours at which point 3×10^6 cells were pelleted and frozen at -80° C. RPPA analysis was performed as previously described. All samples were conducted in biological triplicate and normalized to DMSO control at each respective timepoint. Next, it was sought to identify the signaling nodes activated by selinexor treatment. To do this, a reverse phase protein array (RPPA) was used to analyze AML cells treated with DMSO or selinexor for 48 hours, using a dose of selinexor sufficient to provide an on-target effect but not high enough to impose a meaningful selective pressure. The RPPA platform, which provides quantitative measurements of 160 epitopes and phospho-epitopes representing cellular growth, proliferation, and signaling pathways, identified many drug-induced effects, several of which supported previously described mechanisms of selinexor activity. […] (FIG. 1C). […] In addition to corroborating selinexor's established effects, the RPPA data was able to identify selinexor-induced downregulations of phospho-S6 at Ser235/236 and Ser240/244, phospho-elF4G at […], and phospho-4E-BP1 at […], which collectively pointed to suppression of mTORC1 signaling (FIG. 1C). This idea has been raised in multiple myeloma and was further supported here by the reciprocal upregulation of DEPTOR, a negative regulator of mTOR.

P2RY2 = test: qRT-PCR of P2RY2 expression; assay type: cell-based
Description: RNA was isolated from whole cells with the RNEasy Mini kit (Qiagen). cDNA was reverse transcribed from total RNA samples using iScript cDNA Synthesis Kit with 1 μg of RNA template. qRT-PCR was carried out using iQ SYBR Green Supermix and a CFX384 Touch Real-Time PCR Detection System, according to manufacturer instructions. Fold expression was determined by normalizing cycle threshold (Cq) values to ACTB reference gene and normalizing samples to control sample, in accordance with the ΔΔCq method.

extracellular ATP = test: Extracellular ATP release in presence of ARL67156; assay type: cell-based; settings: 36 hours, with ectonucleotidase inhibitor ARL67156, normalized for cell quantity
Description: To assess the role of P2RY2 in selinexor-induced AKT activation, the ability of P2RY2 to activate AKT in the AML cell lines was first tested by culturing cells in the presence of exogenous ATP or UTP. Cells cultured with exogenous ATP activated AKT signaling while cells cultured with exogenous UTP only minimally activated AKT, if at all, prompting the possibility that selinexor may activate AKT signaling through induced release of extracellular ATP. This was tested by treating cells with selinexor versus vehicle in the presence of the ectonucleotidase inhibitor ARL67156 and quantifying the amount of extracellular ATP released after 36 hours.

MAPK signaling = test: Western blot of MAPK signaling in AML cell lines; assay type: cell-based; settings: multiple AML cell lines
Description: as §1, with “Following incubation with HRP-conjugated secondary antibody, blots were developed with SuperSignal West Pico PLUS Chemiluminescent Substrate (ThermoFisher) or ECL Western Blotting Substrate (ThermoFisher).” left out

[5] = assay type: in vivo; settings: selinexor 15 mg/kg in mice
Description: Animals transplanted with these AML cells were treated with the combination of selinexor (15 mg/kg, oral gavage) and ipatasertib (65 mg/kg, oral gavage) or either drug alone every other day for ten days.

Structure (SMILES): Cc1ccc2c(c1)C=Cc1cc(C)ccc1C2c1cn(Cc2ccc(C(=O)Nc3nn[nH]n3)o2)c(=O)[nH]c1=S [AR-C118925XX]
- p-AKT T308 in FLT3-mutant expressing cells (AKT [1]; OCI-AML2 cells expressing D835Y-mutant FLT3): reduced but did not completely ablate the elevated p-AKT T308 signal
- p-AKT T308, baseline (AKT [1]; OCI-AML2 cells expressing GFP, western blot): suppressed p-AKT T308
- effect on selinexor-induced GTP-RAS (RAS; OCI-AML2, AR-C added to selinexor): able to reverse the increased GTP-RAS

Structure (SMILES): Cc1nc(NC(=O)N2CCC[C@H]2C(N)=O)sc1-c1ccnc(C(C)(C)C(F)(F)F)c1 [BYL-719]
- sensitization to selinexor (relative selinexor GI50), PI3K isoform-specific inhibitor background (AML cell lines): unable to sensitize any of the cell lines to selinexor

Structure (SMILES): CCn1c(-c2nonc2N)nc2c(C#CC(C)(C)O)ncc(OC[C@H]3CCCNC3)c21 [GSK690693]
- sensitization to selinexor (relative selinexor GI50), AKT or MEK/ERK inhibitor background (AML cell lines): capable of sensitizing all eight of the AML cell lines tested to selinexor

Structure (SMILES): C[C@H](NC(=O)c1c(N)nn2cccnc12)c1cc2cccc(C#Cc3cnn(C)c3)c2c(=O)n1-c1ccccc1 [IPI-549]
- sensitization to selinexor (relative selinexor GI50), PI3K isoform-specific inhibitor background (AML cell lines): capable of sensitizing each AML cell line to selinexor

Structure (SMILES): NC1(c2ccc(-c3nc4ccn5c(=O)[nH]nc5c4cc3-c3ccccc3)cc2)CCC1 [MK-2206]
- sensitization to selinexor (relative selinexor GI50), AKT or MEK/ERK inhibitor background (AML cell lines): capable of sensitizing all eight of the AML cell lines tested to selinexor

Structure (SMILES): Cc1cc(C(C)Nc2ccccc2)c2nc(N3CCOCC3)cc(=O)n2c1 (stereo not shown) [TGX-221]
- sensitization to selinexor (relative selinexor GI50), PI3K isoform-specific inhibitor background (AML cell lines): unable to sensitize any of the cell lines to selinexor

Structure (SMILES): NC(=O)/C(=C/n1cnc(-c2cc(C(F)(F)F)cc(C(F)(F)F)c2)n1)c1cncnc1 [eltanexor]
- AKT phosphorylation at Thr308 and Ser473 (second-generation CRM1 inhibitor) (AKT [1]; western blot of eltanexor-treated samples): produced consistent phosphorylation of AKT at Thr308 and Ser473

Structure (SMILES): CC(C)NC[C@@H](C(=O)N1CCN(c2ncnc3c2[C@H](C)C[C@H]3O)CC1)c1ccc(Cl)cc1 [ipatasertib]
- sensitization to selinexor (relative selinexor GI50), AKT or MEK/ERK inhibitor background (AML cell lines): capable of sensitizing all eight of the AML cell lines tested to selinexor

Structure (SMILES): O=C(/C=C\n1cnc(-c2cc(C(F)(F)F)cc(C(F)(F)F)c2)n1)NNc1cnccn1 [selinexor]
- GI50 (OCI-AML2 cells [2]): ~100 nM
- AKT phosphorylation at Thr308 and Ser473 (AKT [1]; five AML cell lines, selinexor 24 hours, western blot): increased AKT phosphorylation at both Thr308 and Ser473
- start of activation of AKT signaling (AKT [1]; multiple AML cell lines, time points up to 48 hours): 8 to 24 h
- start of AKT activation after treatment (AKT [3]): 6 to 8 h
- RPPA expression of phospho-AKT (Thr308 and Ser473) (OCI-AML2 cells [4]; OCI-AML2 cells, 48 hours selinexor vs DMSO): two of the strongest upregulations identified by RPPA were reserved for AKT
- RPPA phospho-ERK at Thr202/Tyr204 (OCI-AML2 cells [4]; selinexor- versus vehicle-treated cells): an increase in phopho-ERK at Thr202/Tyr204
- P2RY2 expression (P2RY2; each of five AML cell lines, vs DMSO control): increased P2RY2 expression
- time course of P2RY2 transcriptional upregulation (P2RY2; qRT-PCR, up to 48 hours): transcriptional upregulation of P2RY2 starting at 12 and increasing through 48 hours
- extracellular ATP released (extracellular ATP): no increase in extracellular ATP
- GTP-RAS (RAS; five AML cell lines, selinexor- versus vehicle-treated): increased GTP-RAS
- MAPK signaling (MAPK signaling): activated MAPK signaling in a P2RY2 dependent manner
- on-target response [5]: induction of p53
